Results reported in patent US20240010678A1, “METHOD OF TREATMENT OF IRRITABLE BOWEL SYNDROME” (THE JOHNS HOPKINS UNIVERSITY, priority 2020, published 2024).
“Also recorded” adds a separate entry of the source.

How the values were obtained:
[1] = test system: oral microorganisms; conditions: U.S. Pat. Nos. 7,494,980 and 8,778,889; cited from earlier work
[2] = test system: biofilms that mimic supragingival or cariogenic plaque; conditions: cited from earlier work
[3] = test system: microbial balance in the colon; test: Effect on microbial balance in the colon; format: in vivo; conditions: FIG. 1 cited
Protocol: Using a novel comprehensive, high-density DNA microarray (PhyloChip) a phylogenetic analysis of the microbial community of the large bowel was performed. […] Even more striking was the dramatic change in the ratio of Firmicutes relative to Bacteroidetes, where “IBS” animals were enriched more with Bacteroidetes and also contained a different composition of species within this phylum.

[4] = test system: pathogenic bacteria; test: Selectivity of the antimicrobial peptide for pathogenic versus beneficial bacteria
[5] = test system: mouse model of IBS; test: Visceromotor reflex (VMR) response to colorectal distention (CRD) in a mouse model of IBS; format: in vivo; conditions: graded colorectal distention, KSL-W given intracolonically (FIG. 1), rifaximin FIG. 2
Protocol: Mouse pups at postnatal day 10 will receive a […] enema infusion with 0.5% acetic acid or saline. The pup will be gently held by hand with head down. A poly-ethylene tubing (PE-10) connected to a 100 ul Hamilton syringe is insert through the rectum into the distal colon about 1.5 cm from the anus. 20 μl of 0.5% acetic acid or saline is infused slowly (about second). The pups are put back with dam and wean at 3 weeks old. The mice are allowed to grow into adulthood (8-12 weeks) when they are ready for test of hypersensitivity (increased pain to graded painful stimulus).
Visceromotor reflex (VMR) and Abdominal Withdrawal Reflex (AWR) response to colorectal distention (CRD) for assessing visceral pain sensitivity. The VMR is a reflex measured using an electromyographic (EMG) recording obtained from the external oblique muscle. […] Then, 30-45 min later, the VMR response to CRD is measured by EMG.
Procedure of electrodes implantation: Under a cocktail of Ketamine/Xylazine (80:8 mg/kg body weight) or 1-2% isoflurane. adult mice undergo surgery to implant abdominal electrodes. The depth of anesthesia will be assessed by pinching the toes for a toe pinch response (negative) every 15 minutes during the surgical procedure. […]
EMG response to CRD: EMG is recorded from two externalized electrodes implanted in the external oblique muscle by using CED 1401 plus and Spike 2 software. […]

Question: With “NH2-Lys-Lys-Val-Val-Phe-Lys-Val-Lys-Phe-Lys-CO NH2 (H-KKVVFKVKFK-NH2) [KSL, antimicrobial decapeptide]” as the molecule, how does the “antibacterial activity / inhibition of growth of oral microorganisms” value [1] read?
Answer: possess a broad range of antibacterial activity; also recorded: inhibiting the growth of various oral microorganisms

Question: And the “prevention of biofilm formation” value [2]?
Answer: effective in preventing the formation of biofilms that mimic supragingival or cariogenic plaque

Question: For “NH2-Lys-Lys-Val-Val-Phe-Trp-Val-Lys-Phe-Lys-CO NH2 (H-KKVVFWVKFK-NH2) [KSL-W, L-tryptophan analog of KSL; L-lysine at position six replaced with L-tryptophan]”, which “microbial balance in the colon” value [3] is on record?
Answer: resets the microbial balance in the colon

Question: And the “selectivity against pathogenic versus beneficial bacteria” value [4]?
Answer: works against pathogenic bacteria but spares beneficial ones; also recorded: selective against pathogenic bacteria but not beneficial bacteria

Question: What about the “pain behavior (VMR response to colorectal distention)” value [5] of the same molecule?
Answer: attenuates pain behavior

Question: For `CO[C@H]1/C=C/O[C@@]2(C)Oc3c(C)c(O)c4c(O)c(c5c(nc6cc(C)ccn65)c4c3C2=O)NC(=O)/C(C)=C\C=C\[C@H](C)[C@H](O)[C@@H](C)[C@@H](O)[C@@H](C)[C@H](OC(C)=O)[C@@H]1C` [rifaximin, reference compound], which “pain behavior (VMR response to colorectal distention)” value [5] is on record?
Answer: attenuates pain behavior
